# Laboratory results published in US20160106722A1, “HUMAN THERAPEUTIC AGENTS” (Life Plus, LLC, priority 2014, published 2016).
# How the values were obtained:
# Assay in all cases: Cancer spheroid cell death test (PrestoBlue)
# Format in all cases: cell-based
# [1] = test system: human prostate cancer cells (22rv1); conditions: compound alone
# Experimental: (§1) Custom-made micromolds with 100 μm diameter wells were loaded with the cells (U.S. Pat. No. 8,735,154, incorporated by reference herein). The media were changed every day by partial replacement. Cell aggregates were allowed to form in the micromolds for 72 hours and then were transferred to a 100 mm non-treated tissue culture dishes for 3 additional days. The spheroids were passed through 70 μm and 100 μm cell strainers (#3431751 and #43152, Corning, Tewksbury, Mass.) and maintained in HEPES Balanced Salt Solution comprised of: 20 mM HEPES, 114 mM NaCl, 4.7 mM KCl, 1.2 mM KH2PO4, 1.16 mM MgSO4, 2.5 mM CaCl2, 25.5 mM NaHCO3 and 0.2% bovine serum albumin (fatty acid free), pH 7.2.
# (§2) The cells were treated and tested as set forth in Example 1.
# [2] = test system: human ovarian cancer cells (A1847); conditions: for anticancer effects (cell number versus increasing concentrations): compound alone
# Experimental: as §1, §2
# [3] = test system: human lung cancer cells (H358); conditions: compound alone
# Experimental: as §1
# The lymphomas treatment methods used were identical to those described in Example 2 relative to the pediatric leukemia cells, whereas the lung cancer treatment method was the same as described in Example 1.
SMILES,anticancer effects (cell number versus increasing concentrations) [1],anticancer effects (cell number versus increasing concentrations) [2],anticancer effects (cell number versus increasing concentrations) [3],"cell death, doxorubicin alone ([2]; low doses of doxorubicin alone (up to 0.158 μM))"
COc1cccc(C=O)c1O [O-vanillin],demonstrated anticancer effects,demonstrated anticancer effects,demonstrated anticancer effects,
"COc1cccc2c1C(=O)c1c(O)c3c(c(O)c1C2=O)C[C@@](O)(C(=O)CO)C[C@@H]3O[C@H]1C[C@H](N)[C@H](O)[C@H](C)O1 [doxorubicin, reference compound]",,,,ineffective
COc1ccc2c3c([nH]c2c1)C(C)=NCC3 [harmaline],demonstrated anticancer effects,demonstrated anticancer effects,demonstrated anticancer effects,
CC1=NCCc2c1[nH]c1cc(O)ccc21.Cl [harmalol hydrochloride],demonstrated anticancer effects,demonstrated anticancer effects,demonstrated anticancer effects,
Cc1nccc2c1[nH]c1cc(O)ccc12.Cl [harmole hydrochloride],demonstrated anticancer effects,demonstrated anticancer effects,demonstrated anticancer effects,
COc1ccc(C(=O)O)cc1O [isovanillic acid],demonstrated anticancer effects,demonstrated anticancer effects,demonstrated anticancer effects,
COc1ccc(CO)cc1O [isovanillyl alcohol],demonstrated anticancer effects,demonstrated anticancer effects,demonstrated anticancer effects,
COc1ccc2c3c([nH]c2c1)[C@@H](C)NCC3 [tetrahydro-harmine],demonstrated anticancer effects,demonstrated anticancer effects,demonstrated anticancer effects,
COc1cc(C=O)ccc1O [vanillin],demonstrated anticancer effects,demonstrated anticancer effects,demonstrated anticancer effects,
